We go through nine compounds from US20230277698A1, “SILICON-CONTAINING LIGAND COMPOUNDS” (Technische Universität München, priority 2020, published 2023).

The target in series [1] is human serum albumin (HSA) (Homo sapiens, UniProt P02768). The series is described as follows: HSA binding by radio inversed affinity chromatography (RIAC). Type of series: in vitro ADME. Conditions: 177Lu-labelled; Superdex 75 Increase 10/300 GL, 700 μM HSA in PBS, 0.8 mL/min. On the procedure:
A gel filtration column Superdex 75 Increase 10/300 GL (GE Healthcare, Uppsala, Sweden) was beforehand calibrated following the producer's recommendations with a commercially available gel filtration calibration kit (GE Healthcare, Buckinghamshire, UK) comprising conalbumin (MW: 75 kDa), ovalbumin (44 kDa), carbonic anhydrase (29 kDa), ribonuclease A (13.7 kDa) and aprotinin (6.5 kDa) as reference proteins of known molecular weight. RIAC experiments were conducted using a constant flow rate of 0.8 mL/min at rt. A solution of HSA in PBS at physiological concentration (700 μM) was used as the mobile phase. PSMA ligands were labelled as described with molar activities of 10-20 GBq/μmol. Probes of 1.0 MBq of the radioligand were injected directly from the labelling solution. HSA binding was expressed as an apparent molecular weight MW calculated from the retention time of the radioligand using the determined calibration curve.
The following table summarizes the underlying data. MW: molecular weight. tR: experimentally determined retention time. V: elution volume. Kav: partition coefficient.
RIAC, in an inversed way, comprises ligand samples (radiolabeled PSMA ligands) and a protein (HSA) containing mobile phase. Ligand-specific retention is caused by interaction of the ligand probe and HSA in the mobile phase. Unbound species, due to a molecular weight beneath the molecular cut off of the gel filtration column, are maximally retained while bound species are eluted in accordance to the higher molecular weight of the ligand-HSA-complex (MWHSA: 66.47 kDa). Experiments show a single radiopeak indicating a dynamic process of formation and dissociation of the ligand-HSA-complex throughout the passage through the column bed. Accordingly, the absolute retention time is the result of the ligand's mean time of abidance at HSA which is directly defined by the ligand's binding kinetics and affinity toward HSA. For evaluation, experimentally determined retention times tR are first converted into elution volumes Ve by multiplying with the flow rate and thereafter converted into partition coefficients Kav following the equation
where V0 is the column void volume (8.027 mL) and Vc is the geometric column volume (24 mL). Using the equation given by the trend line plot of the column calibration
the apparent molecular weight MW is calculated as
FIG. 7 and the table below show the results HSA-binding of lutetium-complexed PSMA-ligands and reference compounds determined by RIAC on a Superdex 75 Increase 10/300 GL column 700 μM HSA in PBS as solvent using a constant flow rate of 0.8 mL/min (plotted data, extracted from FIG. 8).
FIG. 8 illustrates the determination of HSA binding via radio inverse affinity chromatography (RIAC). Correlation of apparent molecular weight (MW) in Dalton (Da) and retention time of ^177Lu-labeled samples, determined on a Superdex 75 Increase 10/300 GL with 700 μM HSA in PBS as solvent using a constant flow rate of 0.8 mL/min.

A short description of series [2]: Octanol-water partition coefficient. To be noted: 177Lu-labelled; n-octanol/PBS pH 7.4; n=6. Type of series: physicochemical. The protocol:
Approximately 1 MBq of the labelled tracer was dissolved in 1 mL of a 1:1 mixture (v/v) of PBS (pH 7.4) and n-octanol in a reaction vial (1.5 mL). After vigorous mixing of the suspension for 3 minutes at room temperature, the vial was centrifuged at 15000 g for 3 minutes (Biofuge 15, Heraeus Sepatech, Osterode, Germany) and 100 μL aliquots of both layers were measured in a gamma counter. The experiment was repeated at least six times.
FIG. 5 and the following table summarize log PO/W values of the synthesized radiolabeled ^177Lu-PSMA ligand compounds and ^177Lu-references (n=6).

Chain of human serum albumin (HSA) (P02768 25-609): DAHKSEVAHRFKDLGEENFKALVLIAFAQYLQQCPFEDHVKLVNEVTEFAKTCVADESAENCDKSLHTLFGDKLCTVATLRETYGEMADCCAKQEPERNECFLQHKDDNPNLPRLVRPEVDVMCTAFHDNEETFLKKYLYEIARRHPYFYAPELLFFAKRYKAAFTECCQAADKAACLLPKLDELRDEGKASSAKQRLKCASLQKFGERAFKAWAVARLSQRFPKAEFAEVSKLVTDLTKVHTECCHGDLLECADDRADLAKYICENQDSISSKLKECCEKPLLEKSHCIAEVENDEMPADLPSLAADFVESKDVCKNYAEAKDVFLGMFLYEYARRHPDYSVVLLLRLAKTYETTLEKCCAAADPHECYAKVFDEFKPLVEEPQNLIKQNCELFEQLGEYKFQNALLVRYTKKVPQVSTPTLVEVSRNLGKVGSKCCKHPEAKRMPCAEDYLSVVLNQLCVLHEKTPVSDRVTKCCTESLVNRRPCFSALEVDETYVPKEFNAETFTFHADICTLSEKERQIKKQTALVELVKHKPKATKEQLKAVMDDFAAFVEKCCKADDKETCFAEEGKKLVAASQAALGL

For the compound `CC(C)(C)[Si](O)(c1ccc(C(=O)NC[C@@H](NC(=O)CC[C@@H](C(=O)O)N2CCN(CC(=O)O)CCN(CC(=O)O)CCN(CC(=O)O)CC2)C(=O)N[C@H](CCCCNC(=O)CCC(=O)NCCC[C@@H](NC(=O)CC[C@H](NC(=O)N[C@@H](CCC(=O)O)C(=O)O)C(=O)O)C(=O)O)C(=O)O)cc1)C(C)(C)C` [7.3-SiOH], the “HSA-binding RIAC (apparent molecular weight)” value (shortened to “HSA-binding RIAC”) in series [1] was determined as 10.1 kDa. In addition, the “Log PO/W” value in series [2] is listed as −3.9 ± 0.1.

Take `CC(C)(C)[Si](O)(c1ccc(C(=O)NC[C@@H](NC(=O)CCCCCNC(=O)CCCNC(=O)CC[C@@H](NC(=O)CCC(NC(=O)N[C@@H](CCC(=O)O)C(=O)O)C(=O)O)C(=O)O)C(=O)NCC(=O)N[C@@H](CCCCNC(=O)CC[C@@H](C(=O)O)N2CCN(CC(=O)O)CCN(CC(=O)O)CCN(CC(=O)O)CC2)C(=O)O)cc1)C(C)(C)C` (stereo partly drawn) [E104-SiOH]: the “HSA-binding RIAC” value in series [1] is 7.8 kDa. In series [2], the “Log PO/W” value is −3.77 ± 0.16.

For `CC(C)(C)[Si](F)(c1ccc(C(=O)NC[C@@H](NC(=O)CN2CCN(CC(=O)O)CCN(CC(=O)O)CCN(CC(=O)O)CC2)C(=O)N[C@H](CCCCNC(=O)CCC(=O)NCCC[C@@H](NC(=O)CC[C@H](NC(=O)N[C@@H](CCC(=O)O)C(=O)O)C(=O)O)C(=O)O)C(=O)O)cc1)C(C)(C)C` [rhPSMA-10, reference compound], the “HSA-binding RIAC” value in series [1] was 25.4 kDa. Also, in series [2], the “Log PO/W” value is listed as −3.6 ± 0.1.

As to `CC(C)(C)[Si](F)(c1ccc(C(=O)NC[C@@H](NC(=O)CC[C@@H](C(=O)O)N2CCN(CC(=O)O)CCN(CC(=O)O)CCN(CC(=O)O)CC2)C(=O)N[C@H](CCCCNC(=O)CCC(=O)NCCC[C@@H](NC(=O)CC[C@H](NC(=O)N[C@@H](CCC(=O)O)C(=O)O)C(=O)O)C(=O)O)C(=O)O)cc1)C(C)(C)C` [rhPSMA-7.3, reference compound], the “HSA-binding RIAC” value in series [1] was 30.2 kDa. Moreover, in series [2], the “Log PO/W” value is −3.8 ± 0.1.

Take `CC(C)(C)[Si](O)(c1ccc(C(=O)NC[C@@H](NC(=O)CC[C@@H](C(=O)O)N2CCN(CC(=O)O)CCN(CC(=O)O)CCN(CC(=O)O)CC2)C(=O)NCC(=O)N[C@@H](CCCCNC(=O)CCC(=O)NCCC[C@@H](NC(=O)CC[C@H](NC(=O)N[C@@H](CCC(=O)O)C(=O)O)C(=O)O)C(=O)O)C(=O)O)cc1)C(C)(C)C` [E102-SiOH]: in series [1], the “HSA-binding RIAC” value worked out at 9.3 kDa. In addition, the “Log PO/W” value in series [2] is −4.14 ± 0.08.

On to `CC(C)(C)[Si](O)(c1ccc(C[N+](C)(C)CC(=O)NCCC[C@@H](NC(=O)CC[C@@H](C(=O)O)N2CCN(CC(=O)O)CCN(CC(=O)O)CCN(CC(=O)O)CC2)C(=O)NCCCCCC(=O)NCCC[C@@H](NC(=O)CC[C@H](NC(=O)N[C@@H](CCC(=O)O)C(=O)O)C(=O)O)C(=O)O)cc1)C(C)(C)C` [P110-SiOH], for which, in series [1], the “HSA-binding RIAC” value was 5.2 kDa. The “Log PO/W” value in series [2] is given as −4.11 ± 0.07.

On to `O=C(O)CC[C@H](NC(=O)N[C@@H](CCCCNC(=O)[C@H](Cc1ccc2ccccc2c1)NC(=O)[C@H]1CC[C@H](CNC(=O)CN2CCN(CC(=O)O)CCN(CC(=O)O)CCN(CC(=O)O)CC2)CC1)C(=O)O)C(=O)O` [PSMA-617, reference compound], for which the “HSA-binding RIAC” value in series [1] amounted to 13.7 kDa. Further, in series [2], the “Log PO/W” value was −4.1 ± 0.1.

In the case of `CC(C)(C)[Si](O)(c1ccc(C(=O)N[C@H](CCC(=O)NC[C@@H](NC(=O)CC[C@@H](C(=O)O)N2CCN(CC(=O)O)CCN(CC(=O)O)CCN(CC(=O)O)CC2)C(=O)NCCCCCC(=O)NCCC[C@@H](NC(=O)CC[C@H](NC(=O)N[C@@H](CCC(=O)O)C(=O)O)C(=O)O)C(=O)O)C(=O)O)cc1)C(C)(C)C` [P105-SiOH], in series [1], the “HSA-binding RIAC” value was determined as 10.4 kDa. In series [2], the “Log PO/W” value is listed as −3.94 ± 0.07.

For the compound `CC(C)(C)[Si](O)(c1ccc(C(=O)NC[C@@H](NC(=O)CC[C@@H](C(=O)O)N2CCN(CC(=O)O)CCN(CC(=O)O)CCN(CC(=O)O)CC2)C(=O)N[C@H](CO)C(=O)NCCC(=O)NCCC(=O)NCCC[C@@H](NC(=O)CC[C@H](NC(=O)N[C@@H](CCC(=O)O)C(=O)O)C(=O)O)C(=O)O)cc1)C(C)(C)C` [C007-SiOH], the “HSA-binding RIAC” value in series [1] is 8.0 kDa. The “Log PO/W” value in series [2] is reported as −4.28 ± 0.09.
